US20100298325A1, “PYRIDINE DERIVATIVES FOR THE TREATMENT OF AMYLOID-RELATED DISEASES” (SENEXIS LIMITED, priority 2007, published 2010)
Where two headings read alike, the source gives them in different places.

Tests used:
[1] = system: SH SY5Y cells; test: Cell viability assay for amyloid toxicity using MTT reduction; assay type: cell-based; details: 10 μM Aβ(1-42), 24 h incubation, MTT reduction as measure of cell viability, read-out: IC50 protecting SH SY5Y cells from a toxic insult of 10 μM Aβ(1-42)
Procedure: Aβ(1-42) was prepared for amyloid aggregation and toxicity assays by dissolving Aβ(1-42) HCl salt in hexafluoroisopropanol (HFIP), with brief sonication and vortexing. This solution of the Aβ(1-42) peptide in HFIP was stored at 4° C. @ 2 mM. When required, an aliquot of this stock solution was freeze-dried and dissolved in DMSO to 200 times the required final assay concentration (e.g. 2 mM for a final assay concentration of 10 μM).
A 20 mM stock solution of each test compound was prepared in DMSO, and aliquots of these solutions were used to prepare further stock solutions of each test compound in DMSO, ranging in concentration from 3 μM up to 10 mM. These stock solutions were prepared for use as and when required and stored at −20° C. (maximum of 3 freeze-thaw cycles). The 20 mM parent stock solutions were stored frozen at −20° C.
The activity of compounds in protecting SH SY5Y cells from a toxic insult of 10 μM Aβ(1-42) was assessed by using inhibition of MIT reduction as a measure of cell viability. An aliquot (3 μl) of test compound [various concentrations] in DMSO is added to 294 μl of Opti-Mem (containing 2% FBS, 1% Pen/Strep, 1% L-Gln) {daughter plate}. The well is mixed thoroughly. Then an aliquot (3 μl) of Aβ(1-42) [2 mM] is added to the daughter plate wells and again mixed thoroughly. 50 μl is then aspirated and dispensed into wells containing 50 μl media+SH SY5Ycells (cells are also plated in Opti-Mem, at ˜30,000 cells/well/50 μl). Final concentrations of compound on cells range from [50 μM] to [˜15 nM] with a final concentration of Aβ(1-42) of [10 μM].
Cell plates are incubated for 24 h and then the MTT assay (Shearman, 1999). is performed. Briefly, 15 μl of MTT (3-(4,5-dimethylthiazol-2-yl)-2,5-diphenyl-tetrazolium bromide) dye (from Promega) added to each well and the plates incubated in 5% CO2 at 37° C. for 4 hours. 100 μl Stop/solubilsation solution (from Promega) was added to each well and the plates were left overnight in humidified box at room temperature. The plate was shaken and the absorbance was recorded at both 570 nm and 650 nm. ΔA values were calculated by subtracting absorbance at 650 nm from absorbance at 570 nm, to reduce non-specific background absorbance. ΔA values from equivalent experiments were averaged and % cell viability was determined as follows:
Live cell controls: 1% DMSO in Opti-Mem
Dead cell controls: 0.1% Triton X-100 added to cells
Activity of Compounds in Protecting SH SY5Y Cells from a Toxic Insult of 10 μM Aβ(1-42) Using Inhibition of MTT Reduction as a Measure of Cell Viability

[2] = target: T1, Aβ(1-42) (Homo sapiens, UniProt P05067); test: Thioflavin-T fluorimetric assay of Aβ(1-42) aggregation; assay type: biochemical; details: 10 μM Aβ(1-42); thioflavin-T fluorescence; read-out: IC50 inhibiting 10 μM Aβ(1-42) aggregation
T1 construct: dissolving Aβ(1-42) HCl salt in hexafluoroisopropanol (HFIP)
Procedure: Aβ(1-42) was prepared for amyloid aggregation and toxicity assays by dissolving Aβ(1-42) HCl salt in hexafluoroisopropanol (HFIP), with brief sonication and vortexing. This solution of the Aβ(1-42) peptide in HFIP was stored at 4° C. @ 2 mM. When required, an aliquot of this stock solution was freeze-dried and dissolved in DMSO to 200 times the required final assay concentration (e.g. 2 mM for a final assay concentration of 10 μM). A 20 mM stock solution of each test compound was prepared in DMSO, and aliquots of these solutions were used to prepare further stock solutions of each test compound in DMSO, ranging in concentration from 3 μM up to 10 mM. These stock solutions were prepared for use as and when required and stored at −20° C. (maximum of 3 freeze-thaw cycles). The 20 mM parent stock solutions were stored frozen at −20° C. The daughter plate is sealed with silver seal and incubated at 37° C. for 24 and 48 hours for the Thioflavin T assay (LeVine and Scholten 1999). The activity of compounds in inhibiting 10 μM Aβ(1-42) aggregation was assessed by using a thioflavin-T fluorimetric assay. At each timepoint, a 50 or 100 μl aliquot is taken from each well of the daughter plate and dispensed into a black 96 well plate. Equal volume (50 or 100 μl) Thioflavin T [40 μM] (in Glycine buffer [50 mM]-NaOH pH 8.5) is added to each well. The plate was shaken and fluorescence was recorded using the top reader setting (10×1 msec), using excitation and emission filters of 440 (±15) and 485 (±10) nm, respectively. Fluorescence readings from equivalent experiments were averaged and % amyloid formation was determined as follows: Activity of Compounds in Inhibiting 10 μM Aβ(1-42) Aggregation Using Thioflavin-T Fluorimetric Assay

T1 sequence (P05067 672-713 limits assumed): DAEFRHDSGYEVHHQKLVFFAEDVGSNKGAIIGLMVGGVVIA

| Compound | IC50 ([1]; Homo sapiens, SH-SY5Y) [µM] | IC50 [2] [µM] | IC50 [1] [µM] |
| --- | --- | --- | --- |
| Oc1cccc(Nc2ccc(Oc3ccc(F)cc3)cn2)c1 [Example 1, 3-[5-(4-Fluorophenoxy)pyridin-2-ylamino]-phenol] | 16 | 5 | – |
| COc1cc(Nc2ccc(Oc3cccc(N(C)C)c3)cn2)ccc1F [Example 17, [5-(3-Dimethylaminophenoxy)-pyridin-2-yl]-(4-fluoro-3-methoxy-phenyl)amine] | 16 | 9 | – |
| COc1cc(N(C)c2ccc(Oc3cccc(N(C)C)c3)cn2)ccc1F [Example 26, [5-(3-Dimethylaminophenoxy)-pyridin-2-yl]-(4-fluoro-3-methoxy-phenyl)methylamine] | 22 | – | – |
| COc1cc(Nc2ccc(Oc3cccc(N4CCOCC4)c3)cn2)ccc1F [Example 27] | 8 | 11 | – |
| Oc1cccc(Nc2ccc(Oc3cccc(N4CCOCC4)c3)cn2)c1 [Example 31] | – | 15 | – |
| Oc1cccc(Nc2ccc(Nc3cccc(O)c3)nn2)c1 [RS-0406, reference compound] | – | – | 40 |
